Reference: paper PMC5665424, “Software-aided approach to investigate peptide structure and metabolic susceptibility of amide bonds in peptide drugs based on high resolution mass spectrometry” (PLoS ONE, 2017)
Entries after “also recorded” stand apart in the source; their conditions may differ.

Tests used:
trypsin = molecular target: T1, trypsin (Bos taurus, UniProt P00760); assay: Incubation with trypsin in simulated intestinal fluid, LC-HRMS
T1 sequence (P00760 24-246): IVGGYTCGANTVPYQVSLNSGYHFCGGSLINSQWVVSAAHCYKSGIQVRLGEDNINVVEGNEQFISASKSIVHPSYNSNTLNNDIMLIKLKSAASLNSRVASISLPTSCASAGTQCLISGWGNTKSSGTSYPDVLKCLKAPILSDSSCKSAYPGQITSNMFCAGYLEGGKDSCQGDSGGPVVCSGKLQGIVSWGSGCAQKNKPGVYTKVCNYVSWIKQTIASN
Experimental: (§4) Incubations with dataset-1 were performed using isolated enzymes. We investigated serine proteases like trypsin, chymotrypsin, and pancreatic elastase (E 3.4.21.1, E 3.4.21.4, E 3.4.21.36) at a concentration of 500 μg/mL in simulated intestinal fluid (SIF) and the aspartic protease pepsin (E 3.4.23.1) at a concentration of 500 μg/mL in simulated gastric fluid (SGF). Proteases were purchased from Sigma Aldrich and SIF and SGF were purchased from RICCA Chemical Company (Arlington, TX, USA). […] All incubations were conducted at 37°C.
Negative control samples were prepared under the same conditions of the incubation (see above), containing each enzyme but without adding probe compounds. Probe compounds were added to 96-well plates (Micronic 0.75 mL V-bottom) using a Hewlett Packard HPD300e. […] Each well was a time point, with five timepoints (0, 5, 15, 45 and 120 min) per compound per protease. Incubations were carried out using a Hamilton MicroLab STAR Plus liquid-handler to initiate, conduct and stop incubation reactions within a single automated method. The incubation plates were placed in heated shakers present on the deck of the liquid-handler and operated at 37°C and 400 rpm shaking speed. Reactions were started with the addition of the enzyme at the appropriate time to allow for all reactions to be quenched at a single time. Incubation quenching was again carried out by the Hamilton STAR Plus with the addition of 100 μL of acetonitrile with 1% formic acid (FA) or 1% ammonium hydroxide (pepsin-only) and the internal standard (melanotan) at a concentration of 1 μM. Following reaction quenching, the samples were vortexed for approximately 2 min and the time zero sample was generated by aliquoting 50 nL of the appropriate stock compound into quenched control samples. The samples were then centrifuged in a Beckman Allegra 25R at 6000 rcf for 20 min at 10°C. […] All time points were analyzed using a data-dependent MS/MS method. […]

chymotrypsin = chymotrypsin (Bos taurus, UniProt P00766); assay: Incubation with chymotrypsin in simulated intestinal fluid, LC-HRMS; conditions: for site of cleavage (amide hydrolysis) by chymotrypsin: chymotrypsin 500 μg/mL in SIF, 10 μM peptide, 37°C, up to 120 min, metabolite structures from LC-HRMS/MS (Mass-MetaSite)
Experimental: as §4
Negative control samples were prepared under the same conditions of the incubation (see above), containing each enzyme but without adding probe compounds. Probe compounds were added to 96-well plates (Micronic 0.75 mL V-bottom) using a Hewlett Packard HPD300e. […] Each well was a time point, with five timepoints (0, 5, 15, 45 and 120 min) per compound per protease. Incubations were carried out using a Hamilton MicroLab STAR Plus liquid-handler to initiate, conduct and stop incubation reactions within a single automated method. The incubation plates were placed in heated shakers present on the deck of the liquid-handler and operated at 37°C and 400 rpm shaking speed. Reactions were started with the addition of the enzyme at the appropriate time to allow for all reactions to be quenched at a single time. Incubation quenching was again carried out by the Hamilton STAR Plus with the addition of 100 μL of acetonitrile with 1% formic acid (FA) or 1% ammonium hydroxide (pepsin-only) and the internal standard (melanotan) at a concentration of 1 μM. Following reaction quenching, the samples were vortexed for approximately 2 min and the time zero sample was generated by aliquoting 50 nL of the appropriate stock compound into quenched control samples. The samples were then centrifuged in a Beckman Allegra 25R at 6000 rcf for 20 min at 10°C. Resulting supernatant was transferred to Eppendorf LoBind 96-well plates and 1 μL was injected onto a Waters Acquity BEH-C18 1 x 50 mm, 1.7 μm column via a Waters Acquity M-Class ultra-performance liquid chromatography (UPLC) autosampler. All time points were analyzed using a data-dependent MS/MS method.
For dataset-1, chromatographic separation of metabolites was performed using the ACQUITY UPLC system (Waters, Milford, MA, USA). The ACQUITY UPLC BEH C18 column (1.0 × 50 mm, 1.7 μm) was heated to 60°C. The mobile phase consisted of 0.1% FA in water (eluent A) and 0.1% formic acid in acetonitrile (eluent B) at a flow rate of 75 μL/min. The initial condition was 10% eluent B, which was maintained for 0.1 min. Eluent B was then increased via a linear gradient to 40% until 3.1 min and further increased to 90% via linear gradient to 3.6 min. Eluent B was then held at 90% until 4.0 min when it was ramped down to 10% by 4.05 min and held until the end of the run at 6 min. […] Full scan/data-dependent MS/MS analyses were run on a Thermo Scientific Q-Exactive Plus mass spectrometer operated in positive electrospray ionization (ESI) mode. The MS and MS/MS acquisition scans were operated with a resolution setting of 17,500 for both, with an automatic gain control (AGC) setting of 1E6 and maximum injection time of 100 ms for MS and AGC of 2E5 and max injection time of 50 ms for full scan/data-dependent MS/MS.

pancreatic elastase = molecular target: T2, pancreatic elastase (Sus scrofa, UniProt P00772); assay: Incubation with pancreatic elastase in simulated intestinal fluid, LC-HRMS; type: in vitro ADME, porcine; conditions: elastase 500 μg/mL in SIF pH 7.4-7.6, 10 μM peptide, 37°C, 0, 5, 15, 45, 120 min, internal standard melanotan, Fig 11c
T2 construct: porcine pancreas; purchased Sigma (Sigma Aldrich) E0258; host or cells: porcine pancreas (tissue-derived)
T2 sequence (P00772 27-266): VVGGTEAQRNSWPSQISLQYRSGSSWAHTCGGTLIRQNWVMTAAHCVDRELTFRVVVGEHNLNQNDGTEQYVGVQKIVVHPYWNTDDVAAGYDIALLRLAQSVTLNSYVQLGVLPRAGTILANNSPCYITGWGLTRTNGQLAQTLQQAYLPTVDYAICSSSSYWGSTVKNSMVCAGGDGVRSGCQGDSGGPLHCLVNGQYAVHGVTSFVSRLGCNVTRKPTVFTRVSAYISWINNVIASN
Experimental: (§1) Incubations with dataset-1 were performed using isolated enzymes. […] All incubations were conducted at 37°C.
Supporting Table 1: Incubation conditions and proteases characteristics
Chymotrypsin Trypsin Elastase Pepsin
αChymotrypsin from Trypsin from Elastase from Pepsin from porcine
Protease bovine pancreas, bovine pancreas, porcine pancreas, gastric mucosa,
Internal Melanotan II acetate salt,
Mobile Phase Water +0.1% formic acid
Mobile Phase Acetonitrile+0.1% formic acid […]
Quadrupole -Orbitrap Mass Spectrometer

[1] = molecular target: T3, dipeptidyl peptidase-4 (DPP-4) (Homo sapiens, UniProt P27487); assay: Incubation with dipeptidyl peptidase-4 in Hank's buffered salt solution, LC-HRMS; type: in vitro ADME; conditions: DPP-4 2 μg/mL in Hank's buffered salt solution
T3 construct: purchased Sigma D3446; host or cells: Sf9 cells
T3 sequence (P27487 whole entry): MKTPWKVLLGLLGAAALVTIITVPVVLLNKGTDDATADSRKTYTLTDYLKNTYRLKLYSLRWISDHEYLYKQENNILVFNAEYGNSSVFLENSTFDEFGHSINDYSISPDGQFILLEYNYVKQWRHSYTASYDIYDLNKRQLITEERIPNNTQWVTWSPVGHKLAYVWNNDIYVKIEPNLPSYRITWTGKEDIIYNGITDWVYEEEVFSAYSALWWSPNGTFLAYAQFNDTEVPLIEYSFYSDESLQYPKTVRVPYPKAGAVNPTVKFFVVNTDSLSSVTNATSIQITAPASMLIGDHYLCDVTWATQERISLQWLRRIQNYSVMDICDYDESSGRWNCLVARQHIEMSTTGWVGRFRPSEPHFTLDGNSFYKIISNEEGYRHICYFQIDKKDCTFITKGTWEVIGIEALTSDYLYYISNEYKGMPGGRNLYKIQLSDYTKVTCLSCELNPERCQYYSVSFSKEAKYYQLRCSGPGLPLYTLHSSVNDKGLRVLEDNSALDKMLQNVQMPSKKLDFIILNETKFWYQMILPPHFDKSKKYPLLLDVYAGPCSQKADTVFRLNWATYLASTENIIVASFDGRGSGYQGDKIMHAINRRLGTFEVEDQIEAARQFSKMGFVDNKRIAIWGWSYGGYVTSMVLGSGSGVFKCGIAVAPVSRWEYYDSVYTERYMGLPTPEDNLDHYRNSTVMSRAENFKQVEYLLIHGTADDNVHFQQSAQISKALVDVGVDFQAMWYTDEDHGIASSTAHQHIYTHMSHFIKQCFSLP
Experimental: as §1
(§2) The dataset-2 peptide incubations were performed at Roche Innovation Center Basel F. Hoffmann-La Roche Ltd., (Hoffmann-La Roche, Basel, Switzerland) using isolated enzymes. For both DPP-4 and NEP incubations, a solution of the respective enzyme in Hank’s buffered salt solution was pre-incubated at 37°C for 3 to 5 min, in 96-well plate Nunc (Thermo Scientific, 163320) before the addition of 30 μL of test substance to give final concentrations of 2 μg/mL DPP-4 or 2 μg/mL NEP. Negative control samples were prepared under the same conditions (see above), containing each enzyme but without adding test compound. […] Reactions were started with the addition of […] and then quenched at each time point with 75 μL cold acetonitrile containing 1% FA followed by thorough mixing. The samples were centrifuged at 4°C for 15 min at 14,000g, and the supernatant was collected. The metabolite profile was immediately analyzed.
(§3) To generate dataset-2, a Thermo Scientific Dionex UltiMate 3000 RS UPLC system in combination with a Pal autosampler (CTC Analytics AG, Zwingen, Switzerland) was used. Chromatographic separation was performed using an Acquity CSHT Phenyl-Hexyl Column (1.7 μm, 2.1 x 100 mm). The mobile phases consisted of A: H2O/0.1% FA and B: methanol/0.1% FA. […]

neprilysin (NEP) = neprilysin (NEP) (Homo sapiens, UniProt P08473); assay: Incubation with neprilysin in Hank's buffered salt solution, LC-HRMS; conditions: NEP 2 μg/mL in Hank's buffered salt solution, 37°C, 2, 4, 8, 24 hr (GLP-1 0, 5, 15, 30, 60 min), Fig 12b
Sequence of neprilysin (NEP) (P08473 whole entry): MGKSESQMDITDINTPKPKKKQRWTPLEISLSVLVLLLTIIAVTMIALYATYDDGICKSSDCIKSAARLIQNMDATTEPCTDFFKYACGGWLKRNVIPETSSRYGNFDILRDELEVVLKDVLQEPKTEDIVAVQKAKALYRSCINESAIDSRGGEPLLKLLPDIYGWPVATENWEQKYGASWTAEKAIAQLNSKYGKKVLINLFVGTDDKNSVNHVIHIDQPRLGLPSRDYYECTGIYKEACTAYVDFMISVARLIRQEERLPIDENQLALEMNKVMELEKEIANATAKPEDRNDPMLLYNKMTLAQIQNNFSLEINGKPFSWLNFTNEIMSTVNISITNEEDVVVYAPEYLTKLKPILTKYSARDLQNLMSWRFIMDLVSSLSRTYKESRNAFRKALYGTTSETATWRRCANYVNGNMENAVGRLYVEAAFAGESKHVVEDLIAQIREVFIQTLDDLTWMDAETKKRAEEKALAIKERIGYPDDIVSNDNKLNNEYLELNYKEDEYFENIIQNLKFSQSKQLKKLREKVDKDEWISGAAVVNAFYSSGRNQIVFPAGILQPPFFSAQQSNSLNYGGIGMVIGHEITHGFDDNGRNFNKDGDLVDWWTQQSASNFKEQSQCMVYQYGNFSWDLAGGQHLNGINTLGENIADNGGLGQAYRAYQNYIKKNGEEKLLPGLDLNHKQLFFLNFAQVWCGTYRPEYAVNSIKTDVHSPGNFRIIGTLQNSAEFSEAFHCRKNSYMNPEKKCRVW
Experimental: as §1, §2, §3

CC[C@H](C)[C@@H]1NC(=O)[C@H](Cc2ccc(O)cc2)NC(=O)[C@@H](N)CSSC[C@@H](C(=O)N2CCC[C@H]2C(=O)N[C@@H](CC(C)C)C(=O)NCC(N)=O)NC(=O)[C@H](CC(N)=O)NC(=O)[C@H](CCC(N)=O)NC1=O [oxytocin, Oxytocin]
metabolic stability with trypsin: percent parent peptide remaining with respect to time, compared in words (trypsin; trypsin 500 μg/mL in SIF pH 7.4-7.6, 10 μM peptide, 37°C, 0, 5, 15, 45, 120 min, LC-HRMS, internal standard melanotan, Fig 11a): digested slower than calcitonin; also recorded: hydrolyzed slower than all other peptides
metabolic stability with chymotrypsin: percent parent peptide remaining with respect to time, compared in words (chymotrypsin; chymotrypsin 500 μg/mL in SIF pH 7.4-7.6, 10 μM peptide, 37°C, 0, 5, 15, 45, 120 min, LC-HRMS, internal standard melanotan, Fig 11b): digested slower than calcitonin
site of cleavage (amide hydrolysis) by chymotrypsin (chymotrypsin): cleavage of Leu-Gly; also recorded: Tyr-Ile (M1-38, cycle opening)

Glp-His-Trp-Ser-Tyr-Ser-tBu-Leu-Arg-Pro-NHNHCONH2 [goserelin, Goserelin]
site of cleavage (amide hydrolysis) by trypsin (trypsin; trypsin 500 μg/mL in SIF, 10 μM peptide, 37°C, up to 120 min, metabolite structures from LC-HRMS/MS (Mass-MetaSite)): also when the C-terminal Pro was modified to Pro-NHNHCONH2 in goserelin

Glp-His-Trp-Ser-Tyr-HisBzl-Leu-Arg-Pro-NHEt [histrelin, Histrelin, synthetic LHRH analogue, Sigma L2761]
metabolic stability with pancreatic elastase: percent parent peptide remaining with respect to time, compared in words (pancreatic elastase): slower than for leuprolide

CCNC(=O)[C@@H]1CCCN1C(=O)[C@H](CCCNC(=N)N)NC(=O)[C@H](CC(C)C)NC(=O)[C@@H](COC(C)(C)C)NC(=O)[C@H](Cc1ccc(O)cc1)NC(=O)[C@H](CO)NC(=O)[C@H](Cc1c[nH]c2ccccc12)NC(=O)[C@H](Cc1cnc[nH]1)NC(=O)[C@@H]1CCC(=O)N1 [buserelin, Buserelin]
site of cleavage (amide hydrolysis) by chymotrypsin (chymotrypsin): amide hydrolysis of the Trp-Ser bond; also recorded: amide hydrolysis of the Tyr-D-Ser(tBu) bond

C[C@@H](O)[C@@H]1NC(=O)[C@H](CCCCN)NC(=O)[C@@H](Cc2c[nH]c3ccccc23)NC(=O)[C@H](Cc2ccccc2)NC(=O)[C@@H](NC(=O)[C@H](N)Cc2ccccc2)CSSC[C@@H](C(=O)N[C@H](CO)[C@@H](C)O)NC1=O [octreotide, Octreotide]
metabolic stability with pancreatic elastase: percent parent peptide remaining with respect to time, compared in words (pancreatic elastase): digested significantly faster than the larger secretin and calcitonin, but it was slower than oxytocin

CCCCCCCCCCCCCCCC(=O)N[C@@H](CCC(=O)NCCCC[C@H](NC(=O)[C@H](C)NC(=O)[C@H](C)NC(=O)[C@H](CCC(N)=O)NC(=O)CNC(=O)[C@H](CCC(=O)O)NC(=O)[C@H](CC(C)C)NC(=O)[C@H](Cc1ccc(O)cc1)NC(=O)[C@H](CO)NC(=O)[C@H](CO)NC(=O)[C@@H](NC(=O)[C@H](CC(=O)O)NC(=O)[C@H](CO)NC(=O)[C@@H](NC(=O)[C@H](Cc1ccccc1)NC(=O)[C@@H](NC(=O)CNC(=O)[C@H](CCC(=O)O)NC(=O)[C@H](C)NC(=O)[C@@H](N)Cc1cnc[nH]1)[C@@H](C)O)[C@@H](C)O)C(C)C)C(=O)N[C@@H](CCC(=O)O)C(=O)N[C@@H](Cc1ccccc1)C(=O)N[C@H](C(=O)N[C@@H](C)C(=O)N[C@@H](Cc1c[nH]c2ccccc12)C(=O)N[C@@H](CC(C)C)C(=O)N[C@H](C(=O)N[C@@H](CCCNC(=N)N)C(=O)NCC(=O)N[C@@H](CCCNC(=N)N)C(=O)NCC(=O)O)C(C)C)[C@@H](C)CC)C(=O)O [liraglutide, Liraglutide]
metabolic stability with DPP-4: percent parent peptide remaining with respect to time, compared in words ([1]; 37°C, 2, 4, 8, 24 hr (GLP-1 0, 5, 15, 30, 60 min), LC-HRMS, Fig 12a): digested faster than the other compounds
site of cleavage (amide hydrolysis) by DPP-4 ([1]; 37°C, metabolite structures from LC-HRMS/MS (Mass-MetaSite)): mainly metabolized by DPP-4 at the SoC Ala-Glu
metabolic stability with NEP: percent parent peptide remaining with respect to time, compared in words (neprilysin (NEP)): digested faster than the other compounds; also recorded: NEP acted slower as compared to DPP-4
